# Data published in patent US5464848A, “1,2,4-oxadiazolyl-phenoxyalkylisoxazoles and their use as antiviral agents” (Sterling Winthrop Inc., priority 1993, dated 1995).
# Columns and labels:
# [1] = test system: 15 most commonly isolated nonpolio enteroviruses; test: MIC for the 15 most commonly isolated nonpolio enteroviruses; format: cell-based; conditions: 15 nonpolio enteroviruses
# Description: (§1) They are useful in inhibiting virus replication in vitro and are primarily active against picornaviruses, including enteroviruses, echovirus and coxsackie virus, especially rhinoviruses. […] The test procedure used was as follows: The MIC values were determined by an automated tissue culture infectious dose 50% (TCID-50) assay. HeLa cells in monoloyers in 96-well cluster plates were infected with a dilution of virus which had been shown empirically to produce 80% to 100% cytopathic effect (CPE) in 3 days in the absence of drug. The compound to be tested was serially diluted through 10, 2-fold cycles and added to the infected cells. After a 3 day incubation at 33° C. and 2.5% carbon dioxide, the cells were fixed with a 5% solution of glutaraldehyde followed by staining with a 0.25% solution of crystal violet in water. The plates were then rinsed, dried, and the amount of stain remaining in the well (a measure of intact cells) was quantitated with an optical density reader. The MIC was determined to be the concentration of compound which protected 50% of the cells from virus-induced CPE relative to an untreated virus control.
# Using the method described above, Example 1e was tested against other viruses. […]
# [2] = test system: HRV-67; test: Inhibition of virus-induced CPE in HeLa cells (MIC), HRV-67; format: cell-based; conditions: Human rhinovirus sp., HRV67, 72 h, 3 day incubation at 33° C.
# Description: as §1, with “control. […]” for “control.”
# [3] = test system: HRV-22; test: Inhibition of virus-induced CPE in HeLa cells (MIC), HRV-22; format: cell-based; conditions: Human rhinovirus sp., HRV22, 72 h, 3 day incubation at 33° C.
# Description: as §1, with “control. […]” for “control.”
# [4] = test system: HRV-21; test: Inhibition of virus-induced CPE in HeLa cells (MIC), HRV-21; format: cell-based; conditions: Human rhinovirus sp., HRV21, 72 h, 3 day incubation at 33° C.
# Description: as §1, with “control. […]” for “control.”
# [5] = test system: HRV-1A; test: Inhibition of virus-induced CPE in HeLa cells (MIC), HRV-1A; format: cell-based, human rhinovirus; conditions: Rhinovirus A, HRV1A, 72 h, 3 day incubation at 33° C.
# Description: as §1, with “control. […]” for “control.”
# [6] = test system: HRV-15; test: Inhibition of virus-induced CPE in HeLa cells (MIC), HRV-15; format: cell-based; conditions: Human rhinovirus sp., HRV15, 72 h, 3 day incubation at 33° C.
# Description: as §1, with “control. […]” for “control.”
# [7] = test system: coxsackievirus A9; test: Oral efficacy against coxsackievirus A9 in suckling mice, administered once; format: in vivo; conditions: Enterovirus B, 60 h, once 2.5 days postinfection, read-out: 50% protective dose
# Description: In another study of the oral efficacy of Example 1e against a coxsackievirus A9 infection in suckling mice, in which the compound was administered once 2.5 days postinfection, the 50% protective dose was determined to be 93 mg/kg per day.
# [8] = test system: HRV-41; test: Inhibition of virus-induced CPE in HeLa cells (MIC), HRV-41; format: cell-based; conditions: Human rhinovirus sp., HRV41, 72 h, 3 day incubation at 33° C.
# Description: as §1, with “control. […]” for “control.”
# [9] = test system: HRV-86; test: Inhibition of virus-induced CPE in HeLa cells (MIC), HRV-86; format: cell-based; conditions: Human rhinovirus sp., HRV86, 72 h, 3 day incubation at 33° C.
# Description: as §1, with “control. […]” for “control.”
# [10] = test system: HRV-2; test: Inhibition of virus-induced CPE in HeLa cells, automated TCID-50 assay (MIC), HRV-2; format: cell-based, human rhinovirus; conditions: Rhinovirus A, HRV2, 72 h, 3 day incubation at 33° C.
# Description: as §1, with “control. […]” for “control.”
# [11] = test system: HRV-50; test: Inhibition of virus-induced CPE in HeLa cells (MIC), HRV-50; format: cell-based; conditions: Human rhinovirus sp., HRV50, 72 h, 3 day incubation at 33° C.
# Description: as §1, with “control. […]” for “control.”
# [12] = test system: coxsackievirus A21; test: Oral efficacy against coxsackievirus A21 in weanling ICR mice; format: in vivo; conditions: for % Alive at Day 17: oral
# [13] = test system: HRV-89; test: Inhibition of virus-induced CPE in HeLa cells (MIC), HRV-89; format: cell-based, human rhinovirus; conditions: Rhinovirus A, HRV89, 72 h, 3 day incubation at 33° C.
# Description: as §1, with “control. […]” for “control.”
# [14] = test system: HRV-14; test: Inhibition of virus-induced CPE in HeLa cells (MIC), HRV-14; format: cell-based, human rhinovirus; conditions: Rhinovirus B, HRV14, 72 h, 3 day incubation at 33° C.
# Description: as §1, with “control. […]” for “control.”
# [15] = test system: HRV-30; test: Inhibition of virus-induced CPE in HeLa cells (MIC), HRV-30; format: cell-based; conditions: Human rhinovirus sp., HRV30, 72 h, 3 day incubation at 33° C.
# Description: as §1, with “control. […]” for “control.”
# [16] = test system: coxsackievirus B3; test: Oral efficacy against coxsackievirus B3 in mice; format: in vivo, adult male BALB/c mice
# [17] = test system: coxsackievirus A9; test: Oral efficacy against coxsackievirus A9 in suckling ICR mice, daily for five days; format: in vivo, mice (suckling ICR pups)
# [18] = test system: HRV-25; test: Inhibition of virus-induced CPE in HeLa cells (MIC), HRV-25; format: cell-based; conditions: Human rhinovirus sp., HRV25, 72 h, 3 day incubation at 33° C.
# Description: as §1, with “control. […]” for “control.”
# [19] = test system: HRV-1B; test: Inhibition of virus-induced CPE in HeLa cells (MIC), HRV-1B; format: cell-based, human rhinovirus; conditions: Rhinovirus A, HRV1B, 72 h, 3 day incubation at 33° C.
# Description: as §1, with “control. […]” for “control.”
# [20] = test system: human rhinovirus (HRV) serotypes, panel T; test: MIC50/MIC80 over panel T of fifteen human rhinovirus serotypes (HeLa cell CPE); format: cell-based
# Description: as §1
# In the above test procedures, representative compounds of formula I were tested against some the serotypes from either a panel of fifteen human rhinovirus (HRV) serotypes, (noted in the table as panel T) namely, HRV-2, -14, -1A, -1B, -6, -21, -22, -15, -25, -30, -50, -67, -89, -86 and -41 or against some of the serotypes from a panel of 10 human rhinovirus serotypes namely HRV-3, -4, -5, -9, -16, -18, -38, -66, -75 and -61, (noted in the table as panel B) and the MIC value, expressed in micrograms per milliliter ([…]), for each rhinovirus serotype was determined for each virus, example 1e is given as an example of the data. Then MIC50 and MIC80 values, which are the minimum concentrations of the compound required to inhibit 50% and 80%, respectively, of the tested serotypes were determined.
# The following Table gives the test results for representative compounds of the invention. The panel of viruses used in the test appears before the MIC80 and MIC50 figure and the number of serotypes which the compound is tested against (N) is indicated after the MIC80 and MIC50 figure.
structure (smiles),measurement,setting,value
"Cc1cc(CCCOc2c(C)cc(-c3noc(C(F)(F)F)n3)cc2C)on1 [Example 1e, 5-{3-[2,6--Dimethyl-4-(5-trifluoromethyl-1,2,4-oxadiazol-3-yl)phenoxy]propyl}-3-methylisoxazole]",overall MIC80,[1],0.05 µM
same,MIC,[2],0.07 µg/mL
same,MIC,[3],0.011 µg/mL
same,MIC,[4],0.015 µg/mL
same,MIC,[5],0.119 µg/mL
same,MIC,[6],0.147 µg/mL
same,ED50,[7],93 mg/kg
same,MIC,[8],0.338 µg/mL
same,MIC,[9],0.029 µg/mL
same,MIC,[10],0.027 µg/mL
same,MIC,[11],0.154 µg/mL
same,% Alive at Day 17,[12]; 9.4 mg/kg per day,13%
same,% Alive at Day 17,[12]; 18.8 mg/kg per day,40%
same,% Alive at Day 17,[12]; 37.5 mg/kg per day,75%
same,% Alive at Day 17,[12]; 75 mg/kg per day,100%
same,ED50,"[12]; Enterovirus C, A21, po, read-out: 50% protective dose (PD50)",26 mg/kg
same,"protection of infected mice, oral",[12]; coxsackievirus A21,orally effective in protecting mice
same,MIC,[13],0.015 µg/mL
same,MIC,[14],0.022 µg/mL
same,MIC,[15],0.047 µg/mL
same,% Alive at Day 17,"[16]; 2 mg/kg per day, oral",8%
same,% Alive at Day 17,"[16]; 20 mg/kg per day, oral",67%
same,% Alive at Day 17,"[16]; 200 mg/kg per day, oral",92%
same,ED50,"[16]; Enterovirus B, B3, po, coxsackievirus B3, adult male mice, oral, Day 1 to Day 5, read-out: 50% protective dose (PD50)",12 mg/kg
same,"protection of infected mice, oral",[16]; coxsackievirus B3,orally effective in protecting mice
same,efficacy in severe disseminated enterovirus infection model,[16]; coxsackievirus B3 infection in mice,has shown efficacy in this stringent model
same,% Nonparalyzed at Day 13,"[17]; 0.2 mg/kg per day, oral",7%
same,% Nonparalyzed at Day 13,"[17]; 2.0 mg/kg per day, oral",10%
same,% Nonparalyzed at Day 13,"[17]; 20 mg/kg per day, oral",10%
same,% Nonparalyzed at Day 13,"[17]; 200 mg/kg per day, oral",87%
same,ED50,"[17]; Enterovirus B, A9, po, coxsackievirus A9, suckling mice, oral, daily for five days beginning 2.5 days postinfection, read-out: 50% protective dose (PD50)",88 mg/kg
same,"protection of infected mice, oral",[17]; coxsackievirus A9,orally effective in protecting mice
same,MIC,[18],0.036 µg/mL
same,MIC,[19],0.054 µg/mL
same,MIC50,"[20]; Human rhinovirus sp., 72 h, minimum concentration required to inhibit 50% of the tested serotypes",0.0415 µg/mL
same,MIC80,[20]; minimum concentration required to inhibit 80% of the tested serotypes,0.119 µg/mL
